From patent US11021481B2, “Substituted isoindolin-1-ones and 2,3-dihydro-1h-pyrrolo[3,4-c]pyridin-1-ones as HPK1 antagonists” (Nimbus Saturn, Inc., priority 2019, dated 2021)

These compounds were tested against HPK1 (Homo sapiens (Human), UniProt Q92918) (assay: HPK1 biochemical enzyme assay (microfluidic mobility shift assay)). Conditions: 1.5 nM HPK1, ATP 1 mM final, 30 min preincubation, 60 min at RT, Caliper EZ Reader; read-out: HPK1 1000UMATP caliper IC50.
Chain of HPK1 (Q92918 whole entry): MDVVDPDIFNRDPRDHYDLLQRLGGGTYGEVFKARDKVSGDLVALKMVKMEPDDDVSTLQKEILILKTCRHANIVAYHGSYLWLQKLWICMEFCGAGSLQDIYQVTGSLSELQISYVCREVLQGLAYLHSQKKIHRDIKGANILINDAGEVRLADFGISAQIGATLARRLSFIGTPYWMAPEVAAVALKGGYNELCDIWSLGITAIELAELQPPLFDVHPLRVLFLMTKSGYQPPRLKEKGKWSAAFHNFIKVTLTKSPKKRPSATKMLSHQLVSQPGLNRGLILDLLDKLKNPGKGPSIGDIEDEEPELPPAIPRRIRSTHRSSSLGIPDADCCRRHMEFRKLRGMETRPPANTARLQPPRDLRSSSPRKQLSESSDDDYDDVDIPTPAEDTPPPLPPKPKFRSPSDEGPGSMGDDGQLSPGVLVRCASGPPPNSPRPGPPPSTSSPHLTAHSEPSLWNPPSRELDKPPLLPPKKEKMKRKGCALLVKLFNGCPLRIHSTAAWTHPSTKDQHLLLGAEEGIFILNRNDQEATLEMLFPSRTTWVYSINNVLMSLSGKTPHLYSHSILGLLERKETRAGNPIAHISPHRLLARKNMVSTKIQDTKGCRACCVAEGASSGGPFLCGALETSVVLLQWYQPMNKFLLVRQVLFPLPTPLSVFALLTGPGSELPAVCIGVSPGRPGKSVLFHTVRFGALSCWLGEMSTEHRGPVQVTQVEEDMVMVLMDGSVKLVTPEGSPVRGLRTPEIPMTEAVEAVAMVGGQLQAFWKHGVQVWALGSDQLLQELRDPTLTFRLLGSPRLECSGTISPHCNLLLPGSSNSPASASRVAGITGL
Procedure, shortened: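 Ten-point compound titrations (top 3 μM final) preincubated 30 min with HPK1 and substrate, then reaction started with 1 mM ATP and 1 μM substrate, 5 mM MgCl2. After 60 min at RT, reaction terminated and product measured by microfluidic mobility shift.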
An IC50 of under 100 nM was found for O=C1NCc2c(-c3cnc4c(F)cccn34)ncc(Nc3ccc(C4(O)CCOCC4)cn3)c21 [I-683, 4-(8-fluoroimidazo [1,2-a]pyridin-3-yl)-7-((5-(4-hydroxytetra-hydro-2H-pyran-4-yl)pyridin-2-yl)amino)-2,3-dihydro-1H-pyrrolo[3,4-c)pyridin-1-one] in this work. An IC50 of under 100 nM was found for Cn1ccc2c(-c3ncc(Nc4ccnc(N5CC[C@H]6CNC[C@H]65)n4)c4c3CNC4=O)ccnc21 [I-684, 7-((2-((3aS, 6aS)-hexahydro-pyrrolo[3,4-b]pyrrol-1(2H)-yl)pyrimidin-4-yl)amino)-4-(1-methyl-1H-pyrrolo[2,3-b)pyridin-4-yl)-2,3-dihydro-1H-pyrrolo[3,4-c]pyridin-1-one] in this work. An IC50 of 100 to 1000 nM was found for Cn1ccc2c(-c3ncc(Nc4ccnc(N5CC[C@@H]6CNC[C@@H]65)n4)c4c3CNC4=O)ccnc21 [I-685, 7-((2-((3aR,6aR)-hexahydro-pyrrolo[3,4-b]pyrrol-1(2H)-yl)pyrimidin-4-yl)amino)-4-(1-methyl-1H-pyrrolo[2,3-b]pyridin-4-yl)-2,3-dihydro-1H-pyrrolo[3,4-c]pyridin-1-one] in this work. An IC50 of over 1000 nM was found for Cn1ccc2c(-c3ncc(Nc4cccc(N5C[C@@H](CN6CCC6)CCC5=O)n4)c4c3CNC4=O)ccnc21 [I-688, (R)-7-((6-(5-(azetidin-1-ylmethyl)-2-oxopiperidin-1-yl)pyridin-2-yl)amino)-4-(1-methyl-1H-pyrrolo[2,3-b]pyridin-4-yl)-2,3-dihydro-1H-pyrrolo[3,4-c]pyridin-1-one] in this work. An IC50 of 100 to 1000 nM was found for Cn1ccc2c(-c3ncc(Nc4cccc(N5C[C@H](CN6CCC6)CCC5=O)n4)c4c3CNC4=O)ccnc21 [I-689, (S)-7-((6-(5-(azetidin-1-ylmethyl)-2-oxopiperidin-1-yl)pyridin-2-yl)amino)-4-(1-methyl-1H-pyrrolo[2,3-b]pyridin-4-yl)-2,3-dihydro-1H-pyrrolo[3,4-c]pyridin-1-one] in this work. An IC50 of under 100 nM was found for Cn1ccc2c(-c3ncc(Nc4cccc(N5C[C@H](N)CC5=O)n4)c4c3CNC4=O)ccnc21 [I-691, (R)-7-((6-(4-amino-2-oxopyrrolidin-1-yl)pyridin-2-yl)amino)-4-(1-methyl-1H-pyrrolo[2,3-b]pyridin-4-yl)-2,3-dihydro-1H-pyrrolo[3,4-c]pyridin-1-one] in this work. An IC50 of under 100 nM was found for Cn1ccc2c(-c3ncc(Nc4cccc(N5C[C@@H](N)CC5=O)n4)c4c3CNC4=O)ccnc21 [I-692, (S)-7-((6-(4-amino-2-oxopyrrolidin-1-yl)pyridin-2-yl)amino)-4-(1-methyl-1H-pyrrolo[2,3-b]pyridin-4-yl)-2,3-dihydro-1H-pyrrolo[3,4-c]pyridin-1-one] in this work. An IC50 of under 100 nM was found for CN(C)Cc1nc(Nc2ccc(-c3cnc4cc(F)ccn34)c3c2C(=O)NC3)ccc1N1CCOCC1 [I-693, 7-((6-((dimethylamino)-methyl)-5-morpholino-pyridin-2-yl)amino)-4-(7-fluoroimidazo [1,2-a]pyridin-3-yl)isoindolin-1-one] in this work. An IC50 of under 100 nM was found for CC(C)([C@@H]1CN(c2ccc(Nc3ccc(-c4cnc5cc(F)ccn45)c4c3C(=O)NC4)nc2)CCO1)N1CC(O)C1 [I-697, (S)-4-(7-fluoroimidazo [1,2-a]pyridin-3-yl)-7-((5-(2-(2-(3-hydroxyazetidin-1-yl)propan-2-yl)morpholino)pyridin-2-yl)amino)isoin-dolin-1-one] in this work. An IC50 of under 100 nM was found for CC(C)([C@H]1CN(c2ccc(Nc3ccc(-c4cnc5cc(F)ccn45)c4c3C(=O)NC4)nc2)CCO1)N1CC(O)C1 [I-698] in this work. An IC50 of under 100 nM was found for CN(C)Cc1cccc(Nc2ccc(-c3cnc4cc(F)ccn34)c3c2C(=O)NC3)n1 [I-699, 7-((6-((dimethylamino)methyl)pyri-din-2-yl)amino)-4-(7-fluoroimidazo [1,2-a]pyridin-3-yl)isoindolin-1-one] in this work. An IC50 of under 100 nM was found for CN(C)Cc1nc(Nc2ccc(-c3cnc4cc(F)ccn34)c3c2C(=O)NC3)ccc1N1CC[C@@H](F)[C@H](O)C1 [I-700, 7-((6-((dimethylamino)-methyl)-5-((3R,4R]-4-fluoro-3-hydroxypiperidin-1-yl)pyridin-2-yl)amino)-4-(7-fluoroimidazo [1,2-a]pyridin-3-yl)isoindolin-1-one] in this work. An IC50 of under 100 nM was found for CN(C)Cc1nc(Nc2ccc(-c3cnc4cc(F)ccn34)c3c2C(=O)NC3)ccc1N1CC[C@H](F)[C@@H](O)C1 [I-701, 7-((6-((dimethylamino)-methyl)-5-((3S.4S]-4-fluoro-3-hydroxypiperidin-1-yl)pyridin-2-yl)amino)-4-(7-fluoroimidazo [1,2-a]pyridin-3-yl)isoindolin-1-one] in this work. An IC50 of under 100 nM was found for NCc1nc(Nc2ccc(-c3cnc4cc(F)ccn34)c3c2C(=O)NC3)ccc1[C@@H]1CCOC1 [I-702, (S)-7-((6-(aminomethyl)-5-(tetrahydrofuran-3-yl)pyridin-2-yl)amino)-4-(7-fluoroimidazo [1,2-a]pyridin-3-yl)isoindolin-1-one] in this work. An IC50 of under 100 nM was found for Cc1ccn2c(-c3ccc(Nc4ccc([C@@H]5CCOC5)c(CN(C)C)n4)c4c3CNC4=O)cnc2c1F [I-704, (S)-7-((6-((dimethylamino)-methyl)-5-(tetrahydrofuran-3-yl)pyridin-2-yl)amino)-4-(8-fluoro-7-methylimidazo [1,2-a]pyridin-3-yl)isoindolin-1-one] in this work. An IC50 of under 100 nM was found for CN(C)Cc1nc(Nc2cnc(-c3ccnc4c3ccn4C)c3c2C(=O)NC3)ccc1[C@H]1CCOC1 [I-708, (R)-7-((6-((dimethylamino)methyl)-5-(tetrahydrofuran-3-yl)pyridin-2-yl)amino)-4-(1-methyl-1H-pyrrolo[2,3-b]pyridin-4-yl)-2,3-dihydro-1H-pyrrolo[3,4-c]pyridin-1-one] in this work. An IC50 of under 100 nM was found for Cc1cccc2c(-c3ccc(Nc4ccc([C@@H]5CCOC5)c(CN(C)C)n4)c4c3CNC4=O)cnn12 [I-709, (S)-7-((6-((dimethylamino)-methyl)-5-(tetrahydrofuran-3-yl)pyridin-2-yl)amino)-4-(7-methylpyrazolo[1,5-a]pyridin-3-yl)isoindolin-1-one] in this work. An IC50 of under 100 nM was found for CN(C)Cc1nc(Nc2ccc(-c3cnc4cnccn34)c3c2C(=O)NC3)ccc1[C@H]1CCOC1 [I-713, (R)-7-((6-((dimethylamino)-methyl)-5-(tetrahydrofuran-3-yl)pyridin-2-yl)amino)-4-(imidazo[1,2-a]pyrazin-3-yl)isoindolin-1-one] in this work. An IC50 of under 100 nM was found for CN(C)Cc1nc(Nc2ccc(-c3cnc4cnccn34)c3c2C(=O)NC3)ccc1[C@@H]1CCOC1 [I-714, (S)-7-((6-((dimethylamino)-methyl)-5-(tetrahydrofuran-3-yl)pyridin-2-yl)amino)-4-(imidazo[1,2-a]pyrazin-3-yl)isoindolin-1-one] in this work. An IC50 of under 100 nM was found for CN(C)C(C)(C)[C@]1(O)CCCN(c2ccc(Nc3ccc(-c4cnc5cc(F)ccn45)c4c3C(=O)NC4)nc2)C1 [I-715, (S)-7-((5-(3-(2-(dimethylami-no)propan-2-yl)-3-hydroxy-piperidin-1-yl)pyridin-2-yl)amino)-4-(7-fluoroimidazo [1,2-a]pyridin-3-yl)isoindolin-1-one] in this work. An IC50 of under 100 nM was found for CN(C)C(C)(C)[C@@]1(O)CCCN(c2ccc(Nc3ccc(-c4cnc5cc(F)ccn45)c4c3C(=O)NC4)nc2)C1 [I-716, (R)-7-((5-(3-(2-(dimethylainino)propan-2-yl)-3-hydroxy-piperidin-1-yl)pyridin-2-yl)amino)-4-(7-fluoroimidazo [1,2-a]pyridin-3-yl)isoindolin-1-one] in this work.
